Counter-ions that a name gives are not always drawn. One block for each molecule: values may come before it.
How the values were obtained:
rats = test: In vivo muscarinic effects in rats after oral dosing
Source text: In these respects it was essentially the same as compound 3.

human FMO1 Supersomes = target: T1, human FMO1 Supersomes (Homo sapiens, UniProt Q01740); test: Metabolism by flavin monoxygenase 1 (FMO1) Supersomes; format: in vitro ADME; details: after 6 hours (FIG. 2)
T1 construct: purchased BD Biosciences 456241
T1 sequence (Q01740 1-532): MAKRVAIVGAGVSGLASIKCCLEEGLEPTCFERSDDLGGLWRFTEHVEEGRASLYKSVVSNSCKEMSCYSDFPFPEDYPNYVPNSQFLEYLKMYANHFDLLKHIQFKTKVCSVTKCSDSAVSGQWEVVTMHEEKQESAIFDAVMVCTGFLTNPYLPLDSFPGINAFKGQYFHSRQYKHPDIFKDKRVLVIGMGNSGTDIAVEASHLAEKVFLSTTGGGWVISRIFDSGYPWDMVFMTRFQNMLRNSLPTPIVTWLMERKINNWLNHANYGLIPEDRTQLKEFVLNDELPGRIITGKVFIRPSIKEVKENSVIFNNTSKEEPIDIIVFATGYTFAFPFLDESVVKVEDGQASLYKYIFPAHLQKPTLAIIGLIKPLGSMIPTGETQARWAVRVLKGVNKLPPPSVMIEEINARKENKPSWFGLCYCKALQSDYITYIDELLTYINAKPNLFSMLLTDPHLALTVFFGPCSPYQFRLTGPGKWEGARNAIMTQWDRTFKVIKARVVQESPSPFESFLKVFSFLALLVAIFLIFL
Procedure: […] Aliquots were removed every 10 minutes, and 1% formic acid was added to halt the reaction. Samples were centrifuged, filtered through 0.2 micron spinfilter and the amount of each compound in the supernatants was quantitated using LC/MS/MS.

[1] = target: T2, human muscarinic M1 receptors (Homo sapiens, UniProt P11229); test: IP production in A9L cells with human M1 receptors (IPOne TR-FRET), Example 28; format: cell-based; details: for huM1/A9L Smax: percentage of maximal stimulation by carbachol; for huM1/A9L ED50 relative to CCh*: potency relative to carbachol at its EC50, semi-quantitative
T2 construct: host or cells: A9L cells
T2 sequence (P11229 1-460): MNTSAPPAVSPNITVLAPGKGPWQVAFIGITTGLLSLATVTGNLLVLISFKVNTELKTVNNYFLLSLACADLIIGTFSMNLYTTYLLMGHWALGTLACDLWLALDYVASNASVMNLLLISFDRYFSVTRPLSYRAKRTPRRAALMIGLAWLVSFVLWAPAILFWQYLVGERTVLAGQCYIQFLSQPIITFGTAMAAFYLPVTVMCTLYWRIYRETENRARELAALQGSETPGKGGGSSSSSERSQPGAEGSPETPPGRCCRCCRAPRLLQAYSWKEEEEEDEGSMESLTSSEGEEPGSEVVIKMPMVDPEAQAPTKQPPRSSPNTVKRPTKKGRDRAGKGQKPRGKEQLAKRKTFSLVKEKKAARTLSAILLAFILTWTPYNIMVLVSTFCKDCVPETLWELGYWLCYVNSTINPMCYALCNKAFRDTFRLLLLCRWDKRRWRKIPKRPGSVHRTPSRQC
In short: (§1)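 A9L cells transfected with human M1 or M3 receptors, exposed to compound in medium with 10 mM LiCl and 10 mM HEPES (pH 7.4) for 60 min at 37 °C. IP in lysates measured by IPOne TR-FRET; efficacy expressed relative to full agonist (100%).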

[2] = test system: A-beta 1-40 and A-beta 1-42; test: A-beta in hippocampal microdialysate of transgenic mice; format: in vivo, Tg-2576 transgenic mice; details: Tg-2576 mice, single dose (FIG. 14)
Source text: These mice have high concentrations of A-beta in their brain tissue, thought to be the cause of neuron death in Alzheimer's disease, and accumulate amyloid plaques, recapitulating one of the hallmark pathological features of Alzheimer's disease.

[3] = target: T3, human muscarinic M3 receptors (Homo sapiens, UniProt P20309); test: IP production in A9L cells with human M3 receptors (IPOne TR-FRET), Example 28; format: cell-based; details: for huM3/A9L Smax: percentage of maximal stimulation by carbachol; for huM3/A9L ED50 relative to CCh*: potency relative to carbachol at its EC50, semi-quantitative
T3 construct: host or cells: A9L cells
In short: as §1

in vitro [4] = details: PAMPA
CD-I mice = test: Apomorphine induced climbing model of psychosis; format: in vivo
Procedure: As described in Costall et. al. European Journal of Pharmacology 1978, 50, 39. individual CD-I mice, 1-2 months old, were placed in a cylindrical wire mesh cage (13.2 cm high×13.2 cm diameter) constructed of steel wire 1 mm thick spaced at 1.2 cm^2. Cylinders were placed in a standard OptiMICE mouse cage (29×32×9×29 cm and 14 cm high) with adequate wood chip bedding provided. Observations of climbing (defined as 3 or more paws of the ground) were carried out every 5 minutes at a duration of 1 minute for […]. Animals were injected subcutaneously under isoflurane anesthesia with test compounds, reference compounds, which included clozapine, haloperidol, olanzapine and xanomeline, or PBS as a control. This was followed 5 minutes later by 2 mg/kg apomorphine hydrochloride. All drugs were dissolved in PBS or a mixture of (by volume) 96% PBS and 4% hydroxypropyl-beta-cyclodextrin, and dosed at a rate of 5 ml per kilogram of body weight. Following injections, animals were replaced in the mesh cages and observed for climbing (defined as 3 or more paws off the ground) every 5 minutes for 1 minute for 60 minutes after dosing.

anesthetized normal rats = test: In vivo measurement of salivation; parameters: species or system Long Evans Hooded rats; details: anesthetized normal rats, dose-dependent between about 0.1 mg/kg and 1 mg/kg (FIG. 11)
Procedure: Suitable doses of test compounds or drug substances were administered using standard techniques to Long Evans Hooded rats weighing 225 to 350 grams, or CD-1 mice weighing 30 to 50 grams, which had been anesthetized using 2-3.5%% of isoflurane in oxygen. The animals were placed slightly head-down on an inclined, heated ramp. Rectal temperature was monitored using a thermocouple and the temperature of the heating pad was adjusted manually to maintain normal body temperature. Saliva was collected from the mouth by absorption onto pre-weighed slips of filter paper. The filter paper was changed periodically and the amount of saliva was measured by weighing the filter paper slips

[5] = test system: hippocampal inositol phosphate; test: In vivo tissue inositol phosphate signaling pathway activation, hippocampus; parameters: species or system Long Evans Hooded rats; details: normal rats, dose-dependent 0.03 mg/kg to at least 3 mg/kg (FIG. 10A)
Procedure: Experimental compounds or drug substances were administered using standard techniques to Long Evans Hooded rats weighing 225 to 350 grams, and which had been pretreated with a subcutaneous injection of lithium chloride at a suitable dose between 3 and 10 mmoles per kg. At suitable times the animals were briefly anesthetized using 5% isoflurane and euthanized by decapitation. The brains and submaxillary salivary glands were rapidly dissected out, and the hippocampuses were dissected from the brains. The dissected tissues were homogenized in a suitable volume of ice-cold phosphate-buffered saline containing 10 mM lithium chloride, pH7.4, using a tissue homogenizer, and used immediately or frozen in aliquots at −80 deg C. for future use. The concentration of inositol-1-phosphate was determined in the homogenates using the IPOne TR-FRET assay (CisBio cat no 621PAPEB), following the manufacturer's instruction

[6] = test system: pooled male human liver microsomes; test: Metabolism by human liver microsomes, Example 33; format: in vitro ADME; details: 6 hours incubation (FIGS. 4A, 4B)
Procedure: Compounds were incubated with pooled male human liver microsomes (BD Biosciences, #452172) and an NADP-regenerating system in a phosphate buffer (pH 7.4) for a total of 6 hours. Aliquots were removed every 2 hours, and 1% formic acid was added to halt the reaction. Samples were centrifuged, filtered through 0.2 micron spinfilter and the amount of each compound in the supernatants was quantitated using LC/MS/MS.

in vitro [7] = format: in vitro ADME; details: PAMPA, pH 7.4, PAMPA Permeability Coefficient (×10^6)
In short: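 Compounds at 400 μM in 100 mM phosphate buffer pH 7.4 diffused through a filter pre-wetted with 20 mg/mL porcine brain polar lipid extract in dodecane into matching buffer, 24 h at room temperature. Donor, acceptor and stock samples were acidified with 1% TFA, quantified by LC/UV, and passive diffusion rates calculated from peak areas.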

[8] = Blood and brain concentrations (rats), oral gavage; format: in vivo, Long-Evans Hooded rats; details: rats, oral dosing
Procedure: Long-Evans Hooded rats (Charles River: male, 250-350 g) were dosed with solutions of test compounds in PBS by oral gavage. At the desired time after dosing, the animals were anesthetized with isoflurane, and then euthanized by cervical dislocation. Blood was obtained by cardiac puncture, transferred to a 1.5 mL microcentrifuge tube containing 15U Heparin, and the plasma recovered after centrifugation. Brains were dissected, weighed, immediately chilled to 4° C., and homogenized using a PowerGen 125 homogenizer in five volumes of ice-cold 2% formic acid. Proteins were precipitated from plasma and brain homogenate with two and five volumes respectively of ice-cold 2% formic acid and clarified by centrifugation. The supernatant was ultra-filtered by centrifugation through a 3K MWCO spin column (Pall Life Sciences), following the manufacturer's instructions. The concentration of compound in the ultra-filtrate was subjected to reverse-phase liquid chromatography using a 150×2.1 mm Agilent C8 reverse-phase column on a Shimadzu Prominence LC, eluting the compounds with a gradient of 2% to 50% of acetonitrile+0.1% formic acid for compound MI-50,382, or an isocratic flow of 2% acetonitrile+0.1% formic acid for the rest of the compounds listed. The concentration of the compound in the column effluent was measured using an Applied Biosystems API-3200 triple quadrupole mass spectrometer equipped with an electrospray sample injection system. The counts of the characteristic parent and product ions of each test compound were converted to concentration units by comparison with a standard calibration curve.

[9] = Metabolites in serum and urine of dosed rats (LC-MS); format: in vivo; details: rats, dosed orally
Procedure: Oxadiazoles disclosed herein as well as other oxadiazoles were investigated to determine the formation of metabolites. Animals were dosed, blood taken, serum prepared, serum proteins precipitated and ultrafiltrates prepared as described in Example 6. In separate experiments, urine was collected from rats for 16-24 hours after dosing, using standard metabolic cages. The urine container and collected urine were maintained at 4° C. Urine was lyophilized, taken back into water. The uftrafiltrate was prepared by adding formic acid to a final concentration of 1% to the urine samples, then filtered through a 0.2 um nylon membrane. The ultrafiltrate was subjected to LC-MS analysis. Instead of measuring the product ions in Q3, manual Q1 scans of the liquid chromatograph were undertaken, seeking parent ions of potential metabolites of the compounds. The criteria for identifying metabolites were as follows: (1) the ion should be present in the sera or urines of dosed rats, but not in sera or urines from non-dosed rats (2) the ion should be identifiable as a metabolic derivative of the dosed compound (e.g. loss of a functional chemical moiety, addition of a hydroxyl group or a glucuronic acid moiety, etc). Metabolites were determined not to be present if no compound meeting the above criteria could be detected in serum or urine.

rat M3 receptors = target: T4, rat M3 receptors (Rattus norvegicus, UniProt P08483); test: PI turnover (inositol phosphate production) in M3-CHO cells; format: cell-based; details: mean Smax relative to carbachol (100.0); CHO cells expressing rat M3
T4 construct: host or cells: CHO (M3-CHO)
Procedure: The medium was changed to 70 μL/well of inositol-free DMEM containing 2 mM glutamine, 10% FBS and 10 μCi/ml of [3H]-inositol (PE:cat # NET114A250UC), incubated overnight as above, then 100 μL of a solution of the test compound in HBSS containing 10 mM LiCl and 20 mM HEPES, pH 7.4 was added, incubation was continued for 60 min under the above conditions, and the test was stopped by removing the test compound and replacing with 100 μL of 50 mM formic acid in water at 4° C. […] The compounds in Table 1 are all dihydropyrimidine-oxadiazoles which vary only at the oxadiazole side chain.

[10] = mice, sc, apomorphine 2 mg/kg (FIG. 1)

T3 sequence (P20309 whole entry): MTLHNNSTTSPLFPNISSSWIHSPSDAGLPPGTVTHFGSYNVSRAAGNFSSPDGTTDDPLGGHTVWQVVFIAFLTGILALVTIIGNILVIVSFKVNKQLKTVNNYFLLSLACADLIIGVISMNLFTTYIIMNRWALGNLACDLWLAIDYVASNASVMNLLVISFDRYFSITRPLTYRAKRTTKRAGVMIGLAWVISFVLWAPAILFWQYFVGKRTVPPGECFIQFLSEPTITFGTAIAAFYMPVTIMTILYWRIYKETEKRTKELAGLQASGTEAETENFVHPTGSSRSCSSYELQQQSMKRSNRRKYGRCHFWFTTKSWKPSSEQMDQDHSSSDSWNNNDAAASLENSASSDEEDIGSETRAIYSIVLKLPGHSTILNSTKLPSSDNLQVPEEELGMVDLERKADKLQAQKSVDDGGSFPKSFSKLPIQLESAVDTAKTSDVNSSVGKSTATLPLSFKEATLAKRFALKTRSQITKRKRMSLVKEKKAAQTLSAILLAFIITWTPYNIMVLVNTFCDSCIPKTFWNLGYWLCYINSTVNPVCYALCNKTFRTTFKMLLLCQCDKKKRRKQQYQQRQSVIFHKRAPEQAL
T4 sequence (P08483 whole entry): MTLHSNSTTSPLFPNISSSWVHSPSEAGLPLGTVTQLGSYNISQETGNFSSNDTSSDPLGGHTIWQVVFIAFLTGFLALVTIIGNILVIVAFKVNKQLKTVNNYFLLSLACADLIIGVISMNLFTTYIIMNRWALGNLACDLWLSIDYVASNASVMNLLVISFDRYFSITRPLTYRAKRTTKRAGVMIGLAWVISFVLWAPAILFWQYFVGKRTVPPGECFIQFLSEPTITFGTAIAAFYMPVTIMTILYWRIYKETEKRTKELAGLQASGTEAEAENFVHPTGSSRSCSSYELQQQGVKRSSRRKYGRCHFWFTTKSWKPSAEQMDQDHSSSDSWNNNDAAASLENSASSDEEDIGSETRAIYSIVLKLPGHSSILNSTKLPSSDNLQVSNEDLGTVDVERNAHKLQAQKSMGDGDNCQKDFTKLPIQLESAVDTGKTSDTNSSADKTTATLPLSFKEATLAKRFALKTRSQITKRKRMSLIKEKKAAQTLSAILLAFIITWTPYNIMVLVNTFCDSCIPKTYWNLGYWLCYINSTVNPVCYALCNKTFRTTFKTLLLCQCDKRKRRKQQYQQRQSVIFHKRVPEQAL

Molecule: 3-Methyl-5-(piperidin-3-yl)-1,2,4-oxadiazole [Compound 3]
salivary flow after oral dosing (rats; rats, dosed orally): produced copious salivary flow

Molecule: Cc1noc(C2CCCNC2)n1 (racemic) [Compound 3, 3-Methyl-5-(piperidin-3-yl)-1,2,4-oxadiazole]
extent of metabolism in FMO Supersomes (in words) (human FMO1 Supersomes): less than half metabolized | huM1/A9L Smax [1]: 108% | huM1/A9L ED50 relative to CCh* [1]: + (+ potency 2-10x CCh) | reduction of the concentration of A-beta 1-40 in hippocampal microdialysate [2]: approximately 40% | reduction of the concentration of A-beta 1-42 in hippocampal microdialysate [2]: approximately 40% | huM3/A9L Smax [3]: 54% | huM3/A9L ED50 relative to CCh* [3]: +/− (+/− potency 0.5-2x CCh) | Papp (in vitro [4]): 2.56 ×10⁻⁶ cm/s | Climbing Mean (CD-I mice; Cmpd 3 0.1 mg/kg + APO 2 mg/kg): 8.9 s | Climbing Mean (CD-I mice; Cmpd 3 0.1 mg/kg + APO + N-Methyl Scopolamine 0.3 mg/kg): 12.3 s | Climbing Mean (CD-I mice; Cmpd 3 0.1 mg/kg + APO + scopolamine 0.3 mg/kg): 47.0 s | activity in the apomorphine induced climbing model (CD-I mice; [10]): highly active and highly potent | potency in inhibiting climbing compared with haloperidol (CD-I mice; [10]): equipotent to haloperidol | salivation (anesthetized normal rats): causes salivation | hippocampal IP response [5]: causes an increase in the hippocampal IP response | metabolism in human liver microsomes (in words) [6]: metabolized significantly less in human liver microsomes than in rat liver microsomes

Molecule: Clc1cccc(Cl)c1N=C1NCCN1 [Clonidine, reference compound]
Papp (in vitro [7]): 7.66 ×10⁻⁶ cm/s | Papp (in vitro [4]): 7.95 ×10⁻⁶ cm/s

Molecule: [2H]C([2H])([2H])c1noc(C2CCCNC2)n1 (stereo not drawn) [Compound 7, 3-D3-Methyl-5-(piperidin-3-yl)-1,2,4-oxadiazole]
extent of metabolism in FMO Supersomes (in words) (human FMO1 Supersomes): less than half metabolized | huM1/A9L Smax [1]: 116% | huM1/A9L ED50 relative to CCh* [1]: + (+ potency 2-10x CCh) | huM3/A9L Smax [3]: 60% | huM3/A9L ED50 relative to CCh* [3]: +/− (+/− potency 0.5-2x CCh) | muscarinic agonist activity in vivo (rats; in vivo): demonstrated muscarinic agonist activity in vivo | penetration into the brain after oral dosing [8]: penetrated into the brain | plasma concentrations relative to compound 1 after oral dosing ([8]; versus compound 1): approximately 2.4 times | metabolites identified in plasma or urine [9]: No metabolites were identified | metabolism in human liver microsomes (in words) [6]: metabolized significantly less in human liver microsomes than in rat liver microsomes

M3/CHO PI turnover Relative Mean Smax (rat M3 receptors): 92.6
Molecule: [2H]C([2H])([2H])c1noc(C2CN=CNC2)n1 (stereo not drawn) [Compound 4c, 3-(d3-methyl)-5-(1,4,5,6-tetrahydropyrimidin-5-yl)-1,2,4-oxadiazole hydrochloride]
